Structures are written as SMILES.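 Protocol summary: plate cells (96-well), add compound at 5 concentrations, incubate 48 h, interpolate endpoints linearly. The concentration for 50% growth inhibition is given as GI50.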 Activity calls are given as the source filed them. Rule as the data show it: active = GI50 up to about 1.1 µM and inactive = higher.

Some test systems named below: DLD-1; DMS-114; DMS-273; HOP-18; KM-20L2; LXFL 529; RXF 631; SNB-78; XF498.
Common to all, as to experiment: DTP human tumour cell line panel, 48 h

Consider `CN1CCN(Cc2nc3cccc4c3c([n+]2[O-])-c2ccccc2-4)CC1`, for which the GI50 (commonly the concentration at which growth is held to half of that of the control) with DLD-1 was 54.5 µM (inactive); in the test with DMS-114 it was 44.4 µM (inactive); in the test with DMS-273 it was 44.1 µM (inactive); in the test on HOP-18 it was 37.2 µM (inactive); in the test on KM-20L2 it was 36.4 µM (inactive); in the test on LXFL 529, 38.3 µM (inactive). For the same molecule, the GI50 in the test with RXF 631 is 60.4 µM (inactive); in the test on SNB-78 it was 15.1 µM (inactive).
On to `CCOC(=O)c1c2ccc(/C=C/c3ccccn3)ccc-2c(C(=O)OCC)c1N`, for which the GI50 is > 100 µM (inactive) with DLD-1; > 100 µM (inactive) in the test on DMS-114; > 100 µM (inactive) with DMS-273; > 100 µM (inactive) in the test with HOP-18; > 100 µM (inactive) with KM-20L2; 72.6 µM (inactive) in the test with LXFL 529. Also, the GI50 in the test with RXF 631 is > 100 µM (inactive).
Turning to `CC[P+](C)(C)c1ccccc1`, the GI50 in the test on DLD-1 was > 100 µM (inactive); in the test on DMS-114, > 100 µM (inactive); in the test on DMS-273 it was > 100 µM (inactive); with HOP-18, 5 µM (inactive); with KM-20L2, > 100 µM (inactive); in the test on LXFL 529 it was > 100 µM (inactive). Moreover, the GI50 with SNB-78 was 58.1 µM (inactive); in the test on XF498, > 100 µM (inactive).
As for `O=C(O/N=C1/CCC/C1=C\c1ccccc1)c1ccccc1`, the GI50 in the test with DLD-1 is 43.8 µM (inactive); in the test on DMS-114, 35 µM (inactive); in the test on DMS-273 it was > 100 µM (inactive); with HOP-18, > 100 µM (inactive); with KM-20L2, 58.3 µM (inactive); in the test with LXFL 529 it was 28.9 µM (inactive). Further, the GI50 in the test on SNB-78 was > 100 µM (inactive).
In the case of `NC(=S)N/N=C/C(O[C@@H](/C=N/NC(N)=S)CO)n1cnc2c(N)ncnc21` (some centres not stated), the GI50 with DMS-114 is 28.4 µM (inactive); with DMS-273 it was > 55.1 µM (inactive); with HOP-18, > 48.8 µM (inactive); in the test with KM-20L2 it was > 61.1 µM (inactive); in the test with LXFL 529, > 78.2 µM (inactive); with RXF 631, > 100 µM (inactive). Moreover, the GI50 in the test on SNB-78 and in the test on XF498 was > 100 µM (inactive) in each case.
`C=C(Br)N(CC)CC`: the GI50 in the test on DLD-1, with DMS-114, in the test on DMS-273, in the test on HOP-18, in the test on KM-20L2 and in the test on LXFL 529 was > 100 µM (inactive) in each case. Besides, the GI50 in the test on RXF 631 and with SNB-78 was > 100 µM (inactive) each time.
Regarding `CCC12CCCN(Cc3ccccc3)C1c1c(n(C)c3ccccc13)CC2` (configuration not stated), the GI50 is > 253 µM (inactive) in the test on DLD-1, 166 µM (inactive) with DMS-273, 103 µM (inactive) in the test on KM-20L2 and 167 µM (inactive) in the test with LXFL 529.
In the case of `CN(C)C(=S)N=C(Nc1ccccc1)Nc1ccccc1`, the GI50 in the test on DMS-114, with DMS-273, in the test with KM-20L2 and with SNB-78 was > 100 µM (inactive) throughout.
As to `C/C(CC(=O)Nc1ccccc1[N+](=O)[O-])=N\NC(N)=O`, the GI50 with DLD-1, in the test with DMS-114, with KM-20L2, with LXFL 529, in the test with RXF 631 and with SNB-78 was > 100 µM (inactive) throughout. The GI50 with XF498 is > 100 µM (inactive).
Take `CCOc1ccccc1NC(=O)C(=O)CC(=O)C1=C(C)Nc2ccccc2S1`: the GI50 in the test on DLD-1, in the test with DMS-273, with KM-20L2, with LXFL 529, with SNB-78 and in the test on XF498 was > 100 µM (inactive) each time.
On to `CN1CCN=C1c1nnn(-c2ccc([N+](=O)[O-])cc2)c1-c1ccccc1`, for which the GI50 in the test on DLD-1 was 67 µM (inactive); in the test with DMS-114, 89.3 µM (inactive); in the test on DMS-273, > 100 µM (inactive); in the test with HOP-18, > 100 µM (inactive); in the test with KM-20L2, > 100 µM (inactive); with LXFL 529 it was > 100 µM (inactive). Besides, the GI50 was > 100 µM (inactive) in the test on SNB-78 and 89.3 µM (inactive) with XF498.
`COc1ccc(C(=O)O)c(Cc2cccc3ccccc23)c1`: the GI50 in the test on DLD-1, in the test on DMS-114, with DMS-273, with HOP-18, in the test on KM-20L2 and with LXFL 529 was > 100 µM (inactive) in each case. For the same molecule, the GI50 in the test with RXF 631 was > 100 µM (inactive).
Take `COC(=O)[C@@H]1c2cc3c(c(O)c2[C@@H](OC2OC(C)C(OC)C(C)(OC)C2OC)C[C@]1(C)O)C(=O)c1c(O)cc2c(c1C3=O)O[C@H]1O[C@]2(C)[C@H](O)[C@@H](N(C)C)[C@@H]1O` (some centres not stated): the GI50 in the test on DLD-1 was 0.00146 µM (active); in the test on DMS-114, 0.00107 µM (active); in the test on DMS-273, 0.01 µM (active); with HOP-18, 0.00323 µM (active); in the test on KM-20L2 it was 0.00745 µM (active); with LXFL 529, 0.000391 µM (active). Besides, the GI50 is 0.00306 µM (active) with SNB-78 and 0.00177 µM (active) in the test with XF498.
As for `C#CCN(Cc1ccc2nc(-c3ccccc3)c(Cl)nc2c1)c1ccc(Cl)c(Cl)c1`, the GI50 with DLD-1, in the test with DMS-114, with DMS-273, with HOP-18, in the test with KM-20L2 and in the test with LXFL 529 was > 100 µM (inactive) in each case. The GI50 with SNB-78 was 38.1 µM (inactive); with XF498 it was > 100 µM (inactive).
`CC1=CC(=O)NCCN1C`: the GI50 in the test with DLD-1, with DMS-114, in the test with DMS-273, with HOP-18, in the test with KM-20L2 and with LXFL 529 was > 100 µM (inactive) in each case. Also, the GI50 in the test on SNB-78 and in the test with XF498 was > 100 µM (inactive) each time.
On to `COc1cc2cnc3c4cc(OCc5ccccc5)ccc4ccc3c2cc1OC`, for which the GI50 was 18.4 µM (inactive) in the test with DLD-1; 11.4 µM (inactive) in the test with DMS-114; 18.4 µM (inactive) in the test with HOP-18; 80 µM (inactive) in the test on KM-20L2; 18.8 µM (inactive) in the test with LXFL 529; 14.1 µM (inactive) with RXF 631. Also, the GI50 in the test with SNB-78 was 19.1 µM (inactive).
For the molecule `O=C(NC1C(=O)NNC1c1cccc([N+](=O)[O-])c1)c1ccccc1` (configuration not stated), the GI50 with DLD-1, in the test on DMS-114, in the test on HOP-18, in the test on KM-20L2, in the test on LXFL 529 and in the test on RXF 631 was > 100 µM (inactive) throughout. The GI50 in the test with SNB-78 and with XF498 was > 100 µM (inactive) in each case.
With `O=C(CC(=O)c1cccc2ccccc12)C(=O)Nc1ccc(Cl)cc1`, the GI50 with DLD-1, in the test on DMS-114, in the test with DMS-273, in the test with HOP-18, in the test on KM-20L2 and in the test on LXFL 529 was > 100 µM (inactive) in each case. Further, the GI50 with RXF 631, in the test on SNB-78 and with XF498 was > 100 µM (inactive) in each case.
Take `NC(=O)c1cn(C2OC(CO)C(O)C2O)c(=O)[nH]c1=O` (configuration not stated): the GI50 with DLD-1, in the test on DMS-114, in the test on DMS-273, with LXFL 529, in the test on RXF 631 and with SNB-78 was > 100 µM (inactive) in each case.
For the molecule `CC(=O)Oc1c2c(c(OC(C)=O)c3c1n(C(C)=O)c1ccccc1n3C(C)=O)n(C(C)=O)c1ccccc1n2C(C)=O`, the GI50 in the test with DLD-1 is 3.04 µM (inactive); in the test on DMS-114, 2.59 µM (inactive); with DMS-273, 3.24 µM (inactive); in the test on LXFL 529, 2.74 µM (inactive).
For the molecule `c1ccc(NC[Si]23OCCN(CCO2)CCO3)cc1`, the GI50 in the test on DLD-1, in the test on DMS-114, in the test on DMS-273, with HOP-18, in the test on LXFL 529 and in the test on RXF 631 was > 100 µM (inactive) each time. For the same molecule, the GI50 in the test with SNB-78 was > 100 µM (inactive).
Turning to `CC(=O)[O-].[Zn+].c1ccc(/C(=N\Nc2ccccn2)c2ccccn2)cc1`, the GI50 in the test on DLD-1 was 0.0231 µM (active); with DMS-114, 0.01 µM (active); with DMS-273, 0.309 µM (active); with HOP-18 it was 0.247 µM (active); in the test on KM-20L2, 0.01 µM (active); with LXFL 529, 0.0429 µM (active). The GI50 with SNB-78 is 2.38 µM (inactive).
As for `COc1cc(C2c3cc4c(cc3C(NCC(O)CO)C3COC(=O)[C@H]23)OCO4)cc(OC)c1OC` (some centres not stated), the GI50 was 0.531 µM (active) in the test with DLD-1; 0.0733 µM (active) in the test on DMS-114; 0.292 µM (active) with DMS-273; > 100 µM (inactive) in the test on HOP-18; 0.143 µM (active) in the test with KM-20L2; 0.163 µM (active) in the test with LXFL 529. In addition, the 50% growth inhibitory concentration (GI50) with SNB-78 is 0.0944 µM (active); in the test on XF498, 0.372 µM (active).
Regarding `CO[C@H](C(=O)O[C@H]1C(=O)N2CCC3CCC1C32C)c1ccccc1` (some centres not stated), the GI50 with DLD-1, in the test with DMS-114, with HOP-18, in the test on KM-20L2, with LXFL 529 and in the test on SNB-78 was > 100 µM (inactive) each time. Moreover, the GI50 in the test on XF498 was > 100 µM (inactive).
Take `CC/C=C\C/C=C\C/C=C\CCCCCCCC(=O)OCC(O)CO` (configuration not stated): the GI50 in the test with DLD-1 was > 100 µM (inactive); with DMS-114, 44.4 µM (inactive); with DMS-273, > 100 µM (inactive); in the test on HOP-18 it was 52.2 µM (inactive); in the test on KM-20L2 it was > 100 µM (inactive); in the test on LXFL 529, > 56.9 µM (inactive). Besides, the GI50 was > 58.7 µM (inactive) in the test with SNB-78 and > 100 µM (inactive) with XF498.

The record behind these values is ChEMBL document CHEMBL1201862, “PubChem BioAssay data set” (2004).
